Measured values: patent publication US20040229867A1, “Treatment of gastrointestinal dysfunction and related stress with an enantiomerically-pure (R) 2,3-benzodiazepine” (priority 2003, published 2004)

Tests used:
[1] = test system: stress-induced ulcer formation; assay: Water immersion stress-induced ulcers test; assay type: in vivo, rat; conditions: for Score for the Presence of Ulcers Mean ± SEM: score 0-4; for Ulceration Index: ulcer score x percentage of stomachs showing ulcers; for effect on ulcer score: text summary of Table 4
[2] = test system: abdominal contractions induced by colonic distension; assay: Visceral hypersensitivity, pain and bloating test (colonic distension after 1% acetic acid); assay type: in vivo, rat
[3] = test system: dextran sulfate sodium-induced colitis; assay: Dextran sulfate sodium-induced colitis; assay type: in vivo; conditions: DSS 5% solution in tap water
Source text: Another gastrointestinal disorder model tested was the dextran sulfate sodium-induced colitis. In this model of colitis, an acute inflammation of the colon is produced by administration of dextran sulfate sodium (DSS) as a 5% solution in tap water. This colitis is characterized by histological events and an influx of neutrophils, macrophages and mediators of inflammation similar to those observed with human inflammatory bowel diseases.

[4] = test system: colonic propulsive motility; assay: Glass bead test (stimulated colonic propulsion); assay type: in vivo, mouse; conditions: for Expulsion Time Mean ± SEM: 30 minutes prior to bead insertion, cutoff 30 minutes, in min
Procedure: In the test, usually performed in mice, a 3-mm glass bead is inserted through the anus into the distal colon (using a glass rod) to a depth of 2 cm. The time to expel the glass bead is then measured; normally, the glass bead is expelled in approximately 10 minutes. This model is especially sensitive to compounds with inhibitory effects on stretch-stimulated propulsive motor activity; as such, it is often used as an animal model for IBS. A test compound that inhibits stretch-stimulated-colonic propulsive motility, may be used to treat gastrointestinal dysfunction, including IBS. […] The glass bead test is commonly used to evaluate the ability of compounds to affect stimulated colonic propulsion. In the test, usually performed in mice, a 3-mm glass bead is inserted through the anus into the distal colon (using a glass rod) to a depth of 2 cm. The time to expel the glass bead is then measured; normally, the glass bead is expelled in approximately 10 minutes. This model is especially sensitive to compounds with inhibitory effects on stretch-stimulated propulsive motor activity; as such, it is often used as an animal model for IBS. In each study, RS— and R-tofisopam were evaluated for their ability to increase or decrease the time for expulsion of the glass bead.

[5] = test system: gastrointestinal propulsive motility; assay: Charcoal meal test (basal gastrointestinal propulsive motility); assay type: in vivo, rat; conditions: for % Inhibition: numbers in parentheses indicate % increase; for effect on charcoal meal transit: R-tofisopam at the highest dose tested, loperamide positive control
[6] = test system: dextran sulfate sodium-induced colitis; conditions: in vivo; cited from earlier work
gastric function = conditions: cited from earlier work
[7] = test system: hydrochloric acid-induced, alkali-induced and cauterization-induced ulcers; conditions: in vivo; cited from earlier work
stress-induced ulcers = conditions: pre-treatment 30 or 100 mg/kg PO; cited from earlier work
[8] = 8 mg/kg IP 30 minutes prior to water immersion
[9] = first experiment, 64 mg/kg IP, 30 minutes prior to charcoal meal

| Structure (SMILES) | % of Stomachs Showing Ulcers ([1]; 8 mg/kg IP) [%] | Score for the Presence of Ulcers Mean ± SEM [1, 8] | Ulceration Index ([1]; 8 mg/kg IP) | % of Stomachs Showing Ulcers ([1]; 16 mg/kg IP) [%] | Score for the Presence of Ulcers Mean ± SEM ([1]; 16 mg/kg IP) | Ulceration Index ([1]; 16 mg/kg IP) | % of Stomachs Showing Ulcers ([1]; 32 mg/kg IP) [%] | Score for the Presence of Ulcers Mean ± SEM ([1]; 32 mg/kg IP) | Ulceration Index ([1]; 32 mg/kg IP) | % of Stomachs Showing Ulcers ([1]; 64 mg/kg IP) [%] | Score for the Presence of Ulcers Mean ± SEM ([1]; 64 mg/kg IP) | Ulceration Index ([1]; 64 mg/kg IP) | % of Stomachs Showing Ulcers ([1]; 128 mg/kg IP) [%] | Score for the Presence of Ulcers Mean ± SEM ([1]; 128 mg/kg IP) | Ulceration Index ([1]; 128 mg/kg IP) | effect on ulcer score [1] | % Inhibition ([4]; 16 mg/kg IP) [%] | Expulsion Time Mean ± SEM ([4]; 16 mg/kg IP) | % Intestine Traversed Mean ± SEM ([5]; second experiment, 16 mg/kg IP) [%] | % Inhibition ([5]; second experiment, 16 mg/kg IP) [%] | also measured |
| --- | --- | --- | --- | --- | --- | --- | --- | --- | --- | --- | --- | --- | --- | --- | --- | --- | --- | --- | --- | --- | --- |
| CC[C@H]1C(C)=NN=C(c2ccc(OC)c(OC)c2)c2cc(OC)c(OC)cc21 [R-tofisopam, (R)-1-(3,4-dimethoxyphenyl)-4-methyl-5-ethyl-7,8-dimethoxy-5H-2,3-benzodiazepine] | 100 | 3.6 ± 0.3 | 363 | 88 | 3.1 ± 0.5 | 273 | 88 | 3.1 ± 0.5 | 273 | 29 | 1.7 ± 0.6 | 49 | 38 | 1.4 ± 0.2 | 52 | significantly reduced the ulcer score | 100 | 30.0 ± 0.0 | 65.7 ± 3.0 | 12.1 | decrease of abdominal cramps versus vehicle control ([2]; 32 mg/kg p.o.): 49%; number of abdominal cramps ([2]; 32 mg/kg p.o., vehicle control 18.8 cramps): 9.5±1.7 cramps; effect in DSS colitis model compared with racemic tofisopam [3]: substantially greater effect; % Inhibition ([4]; 32 mg/kg IP): 99%; Expulsion Time Mean ± SEM ([4]; 32 mg/kg IP): 29.7 ± 0.3; % Inhibition ([4]; 64 mg/kg IP): 90%; Expulsion Time Mean ± SEM ([4]; 64 mg/kg IP): 28.0 ± 1.1; effect on colonic expulsion ([4]; text summary of Table 1, 16-64 mg/kg IP): significantly prolonged (i.e., slowed) colonic expulsion; % Intestine Traversed Mean ± SEM ([5]; first experiment, 16 mg/kg IP): 82.8 ± 3.1%; % Intestine Traversed Mean ± SEM ([5]; first experiment, 32 mg/kg IP): 85.4 ± 2.9%; % Intestine Traversed Mean ± SEM [5, 9]: 72.9 ± 2.9 %; % Inhibition ([5]; first experiment, 64 mg/kg IP): 10.6%; % Intestine Traversed Mean ± SEM ([5]; second experiment, 4 mg/kg IP): 71.72 ± 3.2%; % Inhibition ([5]; second experiment, 4 mg/kg IP): 4.1%; % Intestine Traversed Mean ± SEM ([5]; second experiment, 8 mg/kg IP): 75.2 ± 4.1%; % Intestine Traversed Mean ± SEM ([5]; second experiment, 32 mg/kg IP): 59.5 ± 3.2 %; % Inhibition ([5]; second experiment, 32 mg/kg IP): 20.3%; effect on charcoal meal transit ([5]; second experiment): only a slight inhibition |
| CN1C(=O)CC(=O)N(c2ccccc2)c2cc(Cl)ccc21 [Clobazam, clobazam] |  |  |  | 100 | 3.6 ± 0.2 | 363 | 75 | 2.6 ± 0.5 | 197 |  |  |  |  |  |  | reduced the ulcer score slightly, but this effect was not statistically significant |  |  |  |  |  |
| O=C(O)c1cc(/N=N/c2ccc(S(=O)(=O)Nc3ccccn3)cc2)ccc1O [sulfasalazine] |  |  |  |  |  |  |  |  |  |  |  |  |  |  |  |  |  |  |  |  | activity in DSS colitis model [6]: have been shown to have activity in this model |
| CN(C)C(=O)C(CCN1CCC(O)(c2ccc(Cl)cc2)CC1)(c1ccccc1)c1ccccc1 [Loperamide, loperamide] |  |  |  |  |  |  |  |  |  |  |  |  |  |  |  |  |  |  | 28.1 ± 2.2 | 62.5 | effect on charcoal meal transit ([5]; second experiment): considerable slowing |
| CCC1C(C)=NN=C(c2ccc(OC)c(OC)c2)c2cc(OC)c(OC)cc21 (racemic) [RS-tofisopam, tofisopam] | 100 | 3.4 ± 0.3 | 338 | 100 | 3.4 ± 0.3 | 338 | 100 | 3.5 ± 0.3 | 350 | 100 | 3.1 ± 0.3 | 313 | 75 | 2.4 ± 0.4 | 178 |  | 46 | 19.0 ± 2.8 | 70.4 ± 3.7 | 5.8 | effect on basal gastric acid output and mucosal blood flow (gastric function; intracerebroventricular injection 50 or 100 μg): increased both basal gastric acid output and mucosal blood flow; effect on basal gastric acid output (gastric function; intravenous injection 10 mg/kg): did not change basal gastric acid output; effect on cauterization-induced ulcers [7]: promoted the healing; effect on hydrochloric acid-induced and alkali-induced ulcers [7]: suppressed the development; effect on number of abdominal contractions versus vehicle control ([2]; 32 mg/kg): did not significantly modify; reduction of number of stress-induced ulcers and total area of ulceration (stress-induced ulcers): ≤ 90%; % Inhibition ([4]; 32 mg/kg IP): 71%; Expulsion Time Mean ± SEM ([4]; 32 mg/kg IP): 23.7 ± 2.6; % Inhibition ([4]; 64 mg/kg IP): 82%; Expulsion Time Mean ± SEM ([4]; 64 mg/kg IP): 26.4 ± 2.4; % Intestine Traversed Mean ± SEM ([5]; first experiment, 16 mg/kg IP): 73.5 ± 3.5%; % Inhibition ([5]; first experiment, 16 mg/kg IP): 9.8%; % Intestine Traversed Mean ± SEM ([5]; first experiment, 32 mg/kg IP): 77.7 ± 2.3%; % Inhibition ([5]; first experiment, 32 mg/kg IP): 4.7%; % Intestine Traversed Mean ± SEM [5, 9]: 81.7 ± 2.8%; % Inhibition ([5]; first experiment, 64 mg/kg IP): 0%; % Intestine Traversed Mean ± SEM ([5]; second experiment, 4 mg/kg IP): 77.9 ± 2.9%; % Intestine Traversed Mean ± SEM ([5]; second experiment, 8 mg/kg IP): 78.3 ± 1.7%; % Intestine Traversed Mean ± SEM ([5]; second experiment, 32 mg/kg IP): 65.6 ± 4.5%; % Inhibition ([5]; second experiment, 32 mg/kg IP): 12.2% |
